Experiment [1] deals with blood-flow in liver. As to the kind of experiment: Liver blood-flow by laser Doppler flow method in anesthetized pigs during and after carbon dioxide insufflation (Example I). It is filed as in vivo. The following applies: adult pigs. How it is done: Ten adult pigs were anesthetized at time zero using halothane anesthetic. A small cut was made in the abdomen to allow access inside the peritoneum. In the case of one group of five pigs, denoted group A, an insufflating needle was inserted, and starting at time 1 hour and 48 minutes, an insufflating gas consisting of carbon dioxide was delivered into the abdominal cavity to standard operating pressure (of 15 mm Hg) and the insufflating gas was maintained in the abdominal cavity for 1 hour whereupon the insufflating gas was removed by suction. In the case of another group of five pigs, denoted group B, an insufflating needle was inserted, and starting at time 1 hour and 35 minutes, an insufflating gas consisting of carbon dioxide and 100 ppm ethyl nitrite was delivered to the abdominal cavity to standard operating pressure and the insufflating gas was maintained in the abdominal cavity for about 1⅕ hour whereupon the insufflating gas was removed by suction. In both cases, blood-flow in liver was monitored by a laser Doppler flow method (a standard method where […] are projected at flowing blood and bounce back) whereby blood-flow is determined starting at time 5 minutes after time zero in the case of group A, and starting at about time 20 minutes after time zero in the case of group B and continuing until 2 hours after insufflating gas was removed. In FIGS. 1 and 2, the Doppler Flow Units are arbitrary units. In FIG. 3, the term “Relative Flow” means relative blood-flow in liver compared to baseline. […] FIG. 1 illustrates that carbon dioxide pneumoperitoneum produces a decrease in blood-flow to the liver, which was sustained even after the procedure was completed.

Experiment [2] deals with renal perfusion. As to the kind of experiment: Laparoscopy in a person with renal artery stenosis, renal perfusion (Example IV). Particulars: 100 ppm added to insufflating gas. It is filed as in vivo, human. From the text:
A person with renal artery stenosis undergoes laparoscopy appendectomy and diagnostic evaluation of a renal mass.

The subject of experiment [3] is abdominal pain suggestive of intestinal ischemia. As to the kind of experiment: Laparoscopic cholecystectomy, abdominal pain suggestive of intestinal ischemia (Example III). It is filed as in vivo, human. Particulars: person, 100 ppm added to the insufflating gas one hour into the procedure. From the text:
A person undergoes laparoscopic cholecystectomy.

Experiment [4] concerns fetal PO2. As to the kind of experiment: Fetal PO2 during laparoscopic evaluation of a pregnant female (Example II). The format is in vivo, human. Particulars: 32 weeks pregnant female, 100 ppm added to carbon dioxide insufflating gas; fetal PO2 before addition 7 mmHg, electrode on the head. As for the experimental part: A person, 32 weeks pregnant, undergoes laparoscopic evaluation for right lower quadrant pain. Thirty minutes into the procedure, fetal PO2, measured by an electrode placed on the head, is 7 mmHg. 100 ppm ethyl nitrite is added to the carbon dioxide insufflating gas, and the fetal PO2 increases to 25 mm Hg.

In experiment [5] the test system is blood pressure, pulmonary and renal functions. As to the kind of experiment: Laparoscopic appendectomy, agent nebulized into the abdominal cavity (Example V). It is filed as in vivo, human. Particulars: person, 3 cc of 100 micromolar nebulized into the abdominal cavity. From the text:
A person undergoes laparoscopic appendectomy. Because of concerns of impaired renal function, pulmonary function and hypertension, nitroglycerin (3 cc of 100 micromolar) is nebulized into the abdominal cavity. Blood pressure increases are prevented and pulmonary and renal functions are kept stable.

For `CCON=O` [ethyl nitrite], the “more blood-flow in liver than with carbon dioxide only, 2 hours post-insufflation (FIG. 3)” value in experiment [1] (100 ppm ethyl nitrite in carbon dioxide, 2 hours after insufflating gas is removed) was “about 40%”. Also, the “more blood-flow in liver than with carbon dioxide only, during insufflation (FIG. 3)” value in experiment [1] (100 ppm ethyl nitrite in carbon dioxide, average values while insufflating gas is present) was “about 70%”. In addition, the “effect on carbon dioxide induced decline in liver perfusion (FIG. 2)” value in experiment [1] (group B, carbon dioxide with 100 ppm ethyl nitrite, 15 mm Hg, laser Doppler flow) was “protects against carbon dioxide induced decline in liver perfusion”. The “decrease in blood-flow (renal perfusion)” value in experiment [2] was “protects against decrease in blood-flow”. In experiment [3], the abdominal pain result is given as “resolution of abdominal pain”. Moreover, the “fetal PO2 after addition of agent” value in experiment [4] came out at 25 mm Hg.

With `O=[N+]([O-])OCC(CO[N+](=O)[O-])O[N+](=O)[O-]` [nitroglycerin], in experiment [5], the blood pressure increases entry is given as “prevented”, the pulmonary function entry is given as “kept stable” and the renal function entry is recorded as “kept stable”.

The record behind these values is patent US20100087547A1, “Use of a Blood-Flow Decrease Preventing Agent in Conjunction With Insufflating Gas” (priority 2001, published 2010).
